Measurements reported in patent US11753410B2, “Hormone receptor modulators for treating metabolic mutagenic and fibrotic conditions and disorders” (priority 2017, dated 2023).

How the values were obtained:
[1] = biological target: T1, human Farnesoid X receptor ligand-binding domain/Gal4 DNA binding domain chimera (Homo sapiens, UniProt Q96RI1); assay: Cell-based assay of FXR activation (FXR-UAS-bla HEK 293T beta-lactamase reporter); details: for Emax: HEK-293T, read-out: Cellular % Efficacy
T1 construct: host or cells: FXR-UAS-bla HEK 293T (CellSensor UAS-bla HEK 293T)
T1 sequence (Q96RI1 262-486 limits assumed): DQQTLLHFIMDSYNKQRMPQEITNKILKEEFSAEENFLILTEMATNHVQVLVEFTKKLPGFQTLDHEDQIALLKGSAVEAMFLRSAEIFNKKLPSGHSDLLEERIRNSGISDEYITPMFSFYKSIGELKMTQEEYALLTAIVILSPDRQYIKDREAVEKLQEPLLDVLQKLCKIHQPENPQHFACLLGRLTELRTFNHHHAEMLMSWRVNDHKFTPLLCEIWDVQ
Description: FXR activation was measured using a cell line and procedure obtained from Life Technologies (Cat #K1691). […] Activation of FXR by bound ligands results in transcriptional activation of the beta-lactamase reporter gene, which is detected via assay of beta-lactamase activity.
Cells are harvested and diluted into assay medium containing phenol red-free DMEM supplemented with 2% Charcoal-stripped FBS, pyruvate, non-essential amino acids. Cells are then transferred to a 384 well assay plate. Test compounds are dissolved in DMSO and a 3-fold serial dilution series is generated, then further diluted into assay medium. Compounds in assay medium are added to cells in the 384 well plate and allowed to incubate 16 h at 37 C in the presence of 5% CO2.
A FRET-based […] (CCF4) is loaded into cells as its acetomethoxy ester. Intracellular esterases liberate free CCF4, a cephalosporin core linking 7-hydroxycoumarin to fluorescein. In the presence of beta-lactamase activity produced in the presence of FXR agonists, cleavage of CCF4 spatially separates the two dyes and disrupts FRET, so that exciting the coumarin at 409 nm now produces a blue fluorescence signal at 447 nm. The change in FRET signal is plotted against the test compound concentration and fit to a 3-parameter logistical equation.

[2] = biological target: T2, ligand binding domain of human FXR (Homo sapiens, UniProt Q96RI1); assay: biochemical; details: for Emax: extent of activation relative to GW4064, read-out: Ligand Binding % Efficacy; for EC50: −log EC50, concentration required to produce 50% activation, FRET 520 nm/495 nm, 1 hour at room temperature, read-out: Ligand Binding pEC50 (converted)
T2 construct: purchased Thermofisher (LanthaScreen) PV4833
T2 sequence (Q96RI1 262-486 limits assumed): T1 sequence (Q96RI1 262-486 limits assumed)
Description: The affinity of FXR ligands for the ligand binding domain of FXR was determined using a commercially available human FXR ligand binding assay (LanthaScreen, Thermofisher Cat #PV4833). […] Binding of FXR ligands to the FXR ligand binding domain promotes binding of the fluorescein-labelled SRC2-2 peptide. This causes a FRET signal between the terbium-labelled anti-GST antibody and the fluorescein-labelled SRC peptide which are both bound to the FXR ligand binding domain.
Test compounds are dissolved in DMSO and a 3-fold serial dilution series is generated, then further diluted into assay buffer. The compounds are mixed with 5 nM GST-tagged FXR ligand binding domain, 5 nM Tb-labelled anti-GST antibody and 500 nM fluorescein-labelled SRC2-2 peptide in a pH7.4 buffer. The reaction is incubated at room temperature for 1 hour, then the FRET signal is measured as the ratio of the 520 nm/495 nm emission following excitation at 340 nm. The change in FRET signal is plotted against the test article concentration and fit to a 3-parameter logistical equation.

Row | Structure (SMILES) | EC50 [1] [nM] | Emax [1] [%] | Emax [2] [%] | EC50 [2] [nM]
1 | O=C(O)c1cc([C@@H]2CCOC2)c2nc(N3C[C@@H]4C[C@H]3C[C@H]4OCc3c(C4CC4)nnn3-c3c(Cl)cccc3Cl)sc2c1 (single isomer, unassigned) [Compound I-59] | 2.51 | 100 | 137 | 1.58
2 | O=C(O)c1cc(F)c2nc(N3C[C@@H]4C[C@H]3C[C@H]4OCc3c(-c4c(Cl)cccc4Cl)cnn3C3CC3)sc2c1 [Compound I-47, 2-[(1S,4S,5R)-5-{[1-cyclopropyl-4-(2,6-dichlorophenyl)-1H-pyrazol-5-yl]methoxy}-2-azabicyclo[2.2.1]heptan-2-yl]-4-fluoro-1,3-benzothiazole-6-carboxylic acid] | 398 | 94 | 62 | 251
3 | O=C(O)c1ccc(N2C[C@@H]3C[C@H]2C[C@H]3OCc2c(C3CC3)nnn2-c2c(Cl)cccc2Cl)cc1F [Compound I-53, 4-[(1S,4S,5R)-5-{[4-cyclopropyl-1-(2,6-dichlorophenyl)-1H-1,2,3-triazol-5-yl]methoxy}-2-azabicyclo[2.2.1]heptan-2-yl]-2-fluorobenzoic acid] | 3.98 | 92 | 170 | 6.31
4 | O=C(O)c1cc(C2CCOCC2)c2nc(N3C[C@@H]4C[C@H]3C[C@H]4OCc3c(C4CC4)cnn3-c3c(Cl)cccc3Cl)sc2c1 [Compound I-32, 2-[(1S,4S,5R)-5-{[4-cyclopropyl-1-(2,6-dichlorophenyl)-1H-pyrazol-5-yl]methoxy}-2-azabicyclo[2.2.1]heptan-2-yl]-4-(oxan-4-yl)-1,3-benzothiazole-6-carboxylic acid] | 1 | 101 | 128 | 2.51
5 | O=C(O)CCc1ccc(N2C[C@@H]3C[C@H]2C[C@H]3OCc2c(-c3c(Cl)cccc3Cl)cnn2C2CC2)c(F)c1 [Compound I-44, 3-{4-[(1S,4S,5R)-5-{[1-cyclopropyl-4-(2,6-dichlorophenyl)-1H-pyrazol-5-yl]methoxy}-2-azabicyclo[2.2.1]heptan-2-yl]-3-fluorophenyl}propanoic acid] | < 31.6 | – | 96 | < 631
6 | O=C(O)c1cc(C2CCOCC2)c2nc(N3C[C@@H]4C[C@H]3C[C@H]4OCc3c(-c4c(Cl)cccc4Cl)cnn3C3CC3)sc2c1 [Compound I-49, 2-[(1S,4S,5R)-5-{[1-cyclopropyl-4-(2,6-dichlorophenyl)-1H-pyrazol-5-yl]methoxy}-2-azabicyclo[2.2.1]heptan-2-yl]-4-(oxan-4-yl)-1,3-benzothiazole-6-carboxylic acid] | < 63.1 | 105 | 82 | 100
7 | O=C(NS(=O)(=O)C1CCOCC1)c1ccc(N2C[C@@H]3C[C@H]2C[C@H]3OCc2c(-c3c(Cl)cccc3Cl)cnn2C2CC2)cc1 [Compound I-46, 4-[(1S,4S,5R)-5-{[1-cyclopropyl-4-(2,6-dichlorophenyl)-1H-pyrazol-5-yl]methoxy}-2-azabicyclo[2.2.1]heptan-2-yl]-N-(oxane-4-sulfonyl)benzamide] | < 31.6 | – | 170 | 100
8 | O=C(O)c1cc(C2CCOCC2)c2nc(N3C[C@@H]4C[C@H]3C[C@H]4OCc3c(-c4c(Cl)cccc4Cl)nnn3C3CC3)sc2c1 [Compound I-67, 2-((1S,4S,5R)-5-((1-cyclopropyl-4-(2,6-dichlorophenyl)-1H-1,2,3-triazol-5-yl)methoxy)-2-azabicyclo[2.2.1]heptan-2-yl)-4-(tetrahydro-2H-pyran-4-yl)benzo[d]thiazole-6-carboxylic acid] | 10 | 111 | 148 | 20
9 | O=C(O)c1cc([C@H]2CCOC2)c2nc(N3C[C@@H]4C[C@H]3C[C@H]4OCc3c(-c4c(Cl)cccc4Cl)nnn3C3CC3)sc2c1 (single isomer, unassigned) [Compound I-65] | 10 | 108 | 136 | 25.1
10 | O=C(O)c1cc([C@@H]2CCOC2)c2nc(N3C[C@@H]4C[C@H]3C[C@H]4OCc3c(-c4c(Cl)cccc4Cl)cnn3C3CC3)sc2c1 (single isomer, unassigned) [Compound I-50] | 100 | 100 | 78 | 100
11 | O=C(O)c1cc(C2CCCC2)c2nc(N3C[C@@H]4C[C@H]3C[C@H]4OCc3c(-c4c(Cl)cccc4Cl)nnn3C3CC3)sc2c1 [Compound I-69, 4-cyclopentyl-2-[(1S,4S,5R)-5-{[1-cyclopropyl-4-(2,6-dichlorophenyl)-1H-1,2,3-triazol-5-yl]methoxy}-2-azabicyclo[2.2.1]heptan-2-yl]-1,3-benzothiazole-6-carboxylic acid] | 2.51 | 111 | 168 | 6.31
12 | O=C(O)c1ccc(N2C[C@@H]3C[C@H]2C[C@H]3OCc2c(C3CC3)cnn2-c2c(Cl)cccc2Cl)cc1F [Compound I-2, 4-[(1S,4S,5R)-5-{[4-cyclopropyl-1-(2,6-dichlorophenyl)-1H-pyrazol-5-yl]methoxy}-2-azabicyclo[2.2.1]heptan-2-yl]-2-fluorobenzoic acid] | 2 | 104 | 133 | 5.01
13 | O=C(O)c1ccc(N2C[C@@H]3C[C@H]2C[C@H]3OCc2c(C3CC3)nnn2-c2c(Cl)cccc2Cl)cc1 [Compound I-52, 4-[(1S,4S,5R)-5-{[4-cyclopropyl-1-(2,6-dichlorophenyl)-1H-1,2,3-triazol-5-yl]methoxy}-2-azabicyclo[2.2.1]heptan-2-yl]benzoic acid] | 3.98 | 106 | 140 | 6.31
14 | O=C(O)c1cc(OC2CC2)c2nc(N3C[C@@H]4C[C@H]3C[C@H]4OCc3c(-c4c(Cl)cccc4Cl)nnn3C3CC3)sc2c1 [Compound I-64, 4-cyclopropoxy-2-((1S,4S,5R)-5-((1-cyclopropyl-4-(2,6-dichlorophenyl)-1H-1,2,3-triazol-5-yl)methoxy)-2-azabicyclo[2.2.1]heptan-2-yl)benzo[d]thiazole-6-carboxylic acid] | 10 | 113 | 172 | 5.01
15 | O=C(NS(=O)(=O)C1CCOCC1)c1ccc(N2C[C@@H]3C[C@H]2C[C@H]3OCc2c(C3CC3)nnn2-c2c(Cl)cccc2Cl)cc1 [Compound I-56, 4-[(1S,4S,5R)-5-{[4-cyclopropyl-1-(2,6-dichlorophenyl)-1H-1,2,3-triazol-5-yl]methoxy}-2-azabicyclo[2.2.1]heptan-2-yl]-N-(oxane-4-sulfonyl)benzamide] | 10 | 104 | 180 | 2
16 | O=C(NS(=O)(=O)C1CCOC1)c1ccc(N2C[C@@H]3C[C@H]2C[C@H]3OCc2c(C3CC3)cnn2-c2c(Cl)cccc2Cl)cc1 (stereo partly drawn) [Compound I-23, 4-((1S,4S,5R)-5-((4-cyclopropyl-1-(2,6-dichlorophenyl)-1H-pyrazol-5-yl)methoxy)-2-azabicyclo[2.2.1]heptan-2-yl)-N-((tetrahydrofuran-3-yl)sulfonyl)benzamide] | 2.51 | 111 | 164 | 3.98
17 | O=C(O)c1cc(OC2CC2)c2nc(N3C[C@@H]4C[C@H]3C[C@H]4OCc3c(-c4c(Cl)cccc4Cl)cnn3C3CC3)sc2c1 [Compound I-48, 4-cyclopropoxy-2-[(1S,4S,5R)-5-{[1-cyclopropyl-4-(2,6-dichlorophenyl)-1H-pyrazol-5-yl]methoxy}-2-azabicyclo[2.2.1]heptan-2-yl]-1,3-benzothiazole-6-carboxylic acid] | 20 | 101 | 88 | 39.8
18 | O=C(O)c1cc([C@H]2CCOC2)c2nc(N3C[C@@H]4C[C@H]3C[C@H]4OCc3c(C4CC4)nnn3-c3c(Cl)cccc3Cl)sc2c1 (single isomer, unassigned) [Compound I-58] | 1 | 102 | 145 | 2
